Patent US4812447A, “Method for the treatment of nervous system degeneration” (City of Hope, priority 1986, dated 1989)
Where a name gives a salt, the structure may show the parent alone.

What was measured:
NF^+ neurons = experiment: Example 3: fetal mouse brain cell culture, neurofilament (NF) immunofluorescence of neurons; format: cell-based, Swiss mouse; conditions: for survival of neurons, outgrowth of neuritic processes, establishment of connections between neurons: low concentrations, explants of fetal mouse brain in culture; for optimal concentration for effects on neurons: numbers, processes, connections and staining of NF^+ neurons
Method: (§1) Cultures were prepared from finely chopped, mechanically dissociated brains from 14-day old Swiss mouse embryos. Cells were plated at a density of 3×10^5 cells/cm^2 on poly-D-lysine coated glass cover slips and maintained at 37° C. in an atmosphere of 5% CO2, 80% humidity in Dulbecco-modified ME medium supplemented with 10% fetal calf serum and containing penicillin. The medium was first changed at 5 days of culture, at which time DHEA and DHEAS was added in concentrations ranging from 10^-4 M to 10^-8 M to the experimental cultures, while the control cultures received only normal medium. The supplemented and control media were changed at 7 days and on the 9th day the cultures were fixed and immunostained by the indirect immunofluorescent method of Coons with rabbit antisera to neurofilament protein, specific for neurons, and to glial fibrillary acidic protein, which is specific for glial cells. Neuronal and glial cells identified by the above procedures subsequently will be designated as NF^+ and GFAP^+ cells.
(§2) Briefly, cultures were fixed by successive incubation at room temperature with 3.7% formaldehyde and 3.7% formaldehyde containing 0.2% Triton X-100, 10 min each, and incubation at 4° C. with acetone 50%, with acetone 100% and acetone 50%--2 min each. Incubation with the above-mentioned sera anti-cell markers appropriately diluted (1/20-1/30) was carried out at room temperature for 30 min.

[1] = tested on: astrocytes (GFAP^+ cells); experiment: Example 3: fetal mouse brain cell culture, GFAP immunofluorescence of astrocytes / glial cells; format: cell-based, Swiss mouse; conditions: for brilliance of astrocyte staining (GFAP per unit cell surface) / extent of astrocyte fiber extension / numbers of astrocytes: vs untreated cultures, GFAP staining; for development and maturation of glial processes: low concentrations, explants of fetal mouse brain in culture
Method: as §1, §2

mice [2] = conditions: cited from earlier work
[3] = tested on: human complement system, C4 component; conditions: Koo, et al., Klin. Wochnschr, 61, 715 (1983); cited from earlier work
mice [4] = conditions: orally; cited from earlier work
rats = conditions: orally; cited from earlier work
[5] = oral; cited from earlier work
SDAT patients = experiment: Example 1: treatment of SDAT patients over 75 years old with DHEAS; format: in vivo, human; conditions: 500 mg three times per day for two months
Method: Four patients over 75 years old, suffering from SDAT and having well-documented, progressive SDAT symptoms, are selected. Two of the patients are given 500 mg of DHEAS three times per day for two months. The other two are given a placebo.

Compound | survival of neurons, outgrowth of neuritic processes, establishment of connections between neurons (NF^+ neurons) | optimal concentration for effects on neurons (NF^+ neurons) | brilliance of astrocyte staining (GFAP per unit cell surface) [1] | extent of astrocyte fiber extension [1] | numbers of astrocytes [1] | development and maturation of glial processes [1] | incidence of breast cancer (mice [2]) | obesity (mice [2]) | effect on human complement system, in particular C4 component [3] | LD50 (mice [4]) | LD50 (rats) | absorption in the gut [5] | further results
C[C@]12CC[C@H](O)CC1=CC[C@@H]1[C@@H]2CC[C@]2(C)C(=O)CC[C@@H]12 [DHEA, dehydroepiandrosterone] | remarkable effects in enhancing the survival of neurons | 10^-7 M | remarkable increase | remarkable increase | remarkable increase | enhanced greatly | reduce the incidence of breast cancer | reduce obesity | known to effect the human complement system | greater than 10,000 mg/kg | greater than 10,000 mg/kg | readily absorbed in the gut | connections between neurons and between neuronal clusters (NF^+ neurons; 10^-5 M-10^-8 M): Numerous connections appeared to be formed; neuronal clusters (NF^+ neurons; 10^-5 M-10^-8 M): greatly enlarged neuronal clusters; processes of NF^+ neurons (NF^+ neurons; 10^-5 M-10^-8 M): greatly extended, thickened, and intertwined; numbers of NF^+ neurons (NF^+ neurons; 10^-5 M-10^-8 M, by comparison with controls, fixed on 9th day): remarkable increases; brilliance of fluorescence of neurons and their processes (NF protein content) (NF^+ neurons; 10^-5 M-10^-8 M, in contrast to dull signal in controls): in marked contrast to the rather dull fluorescent signal observed in the controls; size of NF^+ neurons (NF^+ neurons; experimental cultures vs controls): larger than those seen in the controls; apparent age after prolonged administration (mice [2]; prolonged administration): appear to be younger
C[C@]12CC[C@H](OS(=O)(=O)O)CC1=CC[C@@H]1[C@@H]2CC[C@]2(C)C(=O)CC[C@@H]12 [DHEAS, dehydroepiandrosterone sulfate] | remarkable effects in enhancing the survival of neurons | 10^-8 M | remarkable increase | remarkable increase | remarkable increase | enhanced greatly | reduce the incidence of breast cancer | reduce obesity | known to effect the human complement system | greater than 10,000 mg/kg | greater than 10,000 mg/kg | readily absorbed in the gut | cognitive ability (SDAT patients; 2 patients vs 2 placebo): significant improvements; memory (SDAT patients; 2 patients vs 2 placebo): significant improvements; speech (SDAT patients; 2 patients vs 2 placebo): significant improvements; signs of further SDAT-type deterioration (SDAT patients; placebo patients show continuing deterioration): No signs of further SDAT-type deterioration; effects on NF^+ neurons compared with those of DHEA (NF^+ neurons; 10^-4 M to 10^-8 M added): Effects similar to those above
